According to US6800481B1, “Stable macroscopic membranes formed by self-assembly of amphiphilic peptides and uses therefor” (priority 1992, dated 2004):
Entries after “also recorded” stand apart in the source; their conditions may differ.

Key:
[1] = tested on: striatum (a brain structure); assay: In vivo injection into the striatum, gliosis (nissl stain); conditions: rats, 1 μl into the striatum
Experimental: Three hundred g rats were anesthesized with equithesin (0.3 ml/100 g body weight). The skull was surgically exposed and small burr holes were stereotaxically drilled at AP=+1.5, ML=+/−3.0 relative to bregma. An injection cannula was placed at a depth of −4.5 in the striatum (a brain structure). Experimental rats received 1 μl of EAK16 or RAD16 injected into the striatum. Control rats received similar injections of ibotenic acid, a well characterized toxin, as a positive contorl for gliosis, the experimental rats also received 35 μl injection of EAK16 or RAD16 into the thigh muscle (n=2 for each group). The rate were allowed to recover, then sacrificed for tissue harvest.

[2] = format: physicochemical
Experimental: Once formed, the macroscopic membranes are stable in a variety of aqueous solutions, including water, phosphate-buffered saline (PBS), tissue culture medium, serum, and also in ethanol, and can be transferred to and stored in any of these liquids. […] The membranes can be transferred from one solution to another using a solid support such as a spatula. They can be broken by cutting, tearing or shearing.
The stability of the membranes was also tested under a range of temperature, pH and chemical conditions. For these experiments, membranes were formed by adding 20 μl of a 0.5 mM stock solution of EAK16 to 0.5 ml of PBS, and transferred into water or other solutions at test conditions.
The membranes could be frozen and thawed, although care was required in handling the frozen membranes which were brittle. In boiling water, the membranes tended to be sheared by the mechanical agitation. […] (FIGS. 9A and 9B). […] Such strong thermal stability of the defined β-sheet structure of EAK16 is unusual for a small peptide. For example, these findings contrast with the α-helix-forming sixteen residue (Ala, Glu, Lys)-containing peptides studied previously (Marqusee and Baldwin, 1987).
The EAK16 membranes were also tested in water at pH 1.5, 3, 7 and 11 at room temperature for at least a week and at 95° C. for about 4 hours. The membranes were unaffected at these pH. […] It is possible that the complementary interactions between the Glu and Lys side-chains are strong even when the carboxyl groups of the Glu residues have been protonated at pH 1.5 and 3, due to their ability to form hydrogen bonds even when protonated.
The EAK16 membranes were further tested for resistance to chemical denaturation under the following conditions: 1% and 10% sodium dodecyl sulfate (SDS); 1, 2, 3, 4, 5, 6 and 7 M guanidine-HCl; and 1, 2, 3, 4, 5, 6, 7 and 8 M urea. […] The membranes were also tested at 95° C. for 4 hours in 10% SDS; 7 M guanidine-HCl; and at 8 M urea.

3T3 = assay: Cell attachment to biopolymer sheets, normal or Ca++ and Mg++ free medium (Table 6); format: cell-based, mouse; parameters: key: ++++: strong attachment; +++: moderate attachment; ++: weak attachment; +/−: little or no attachment; conditions: 3T3, 30 min, Normal Ca^++ & Mg^++ serum-free + Cyclohex
Experimental: (§1) Cells were pretreated in serum-free medium containing 30 μg/ml cyclohexamide for 2 hours before introduction to the peptide membranes. The cells used for the calcium and magnesium-free condition were pre-equilibrated in Ca^++ and Mg^++ free medium containing 5 mM EDTA for 15 minutes before introduction to the peptide membranes. Cells were allowed to attach to the peptide membranes for 30 minutes, 1 and 8 hours at 37° C. The attached cells were shaken for […] on a rotary rocker at 60 r.p.m., then scored under phase contrast microscopy.

[3] = tested on: NGF differentiated PC12 cells, retonic acid-differentiated human neuroblastoma and mouse cerebellum granule cells; assay: Neurite outgrowth on biopolymers, several neuronal cell types; format: cell-based
From the text: The invention further relates to the regeneration of nerves with filaments of the membranes of the present invention. Nerve regeneration can be promoted and directed by transplanting filaments of RAD16 along the correct path to their targets. This would be extremely useful for patients with severed peripheral nerves. Such a technology could be refined to help people with spinal cord injuries.

3T3 fibroblast cells = assay: Cell attachment to biopolymer sheets, with serum or serum-free + cyclohexamide (Table 5); format: cell-based, mouse; parameters: key: ++++: strong attachment; +++: moderate attachment; ++: weak attachment; +/−: little or no attachment
Experimental: 3T3 fibroblast cells were introduced to membranes of RAD16 and EAK16 in normal serum-containing medium or in serum-free medium containing 30 μg/ml cyclohexamide (cells used for this condition were pretreated in this medium for 2 hours before plating). Cells were allowed to attach to the membranes for 30 minutes, 1 and 8 hours at 37° C. The attached cells were shaken for 10 minutes on a rotary rocker at 60 r.p.m., then scored under phase contrast microscopy. The decrease in cells attached to the membrane in the serum-free condition reflects cell loss due to serum deprivation.

PC12 cells = assay: In vitro neurite outgrowth on peptide membranes; format: cell-based, rat; parameters: Neurite outgrowth, NGF treated, 14 days: key to the marks not given beside the values
Experimental: The suitability of these materials for supporting in vitro neurite outgrowth was tested by treating biomaterial-attached PC12 cells with nerve growth factor (NGF). This treatment induces PC12 cells to differentiate into sympathetic neurons which can send out long processes called neurites. There was a marked difference in the neurite promoting properties of the two materials tested (EAK16 and RAD16).
Nerve growth factor differentiated PC12 cells have been used extensively in studies of neurite outgrowth. PC12 cells upregulate the number of calcium-dependent and -independent cell adhesion receptors in response to nerve growth factor. Cell attachment and neurite outgrowth from nerve growth factor differentiated PC12 cells was examined on membranes of RAD16 and EAK16 in order to determine whether membranes containing RGD-like sequences would preferentially support these cell activities. Neurite outgrowth on peptide membranes is of interest for potential applications of nerve repair.
Untreated PC12 cells were introduced to peptide membranes of EAK16 and RAD16 suspended in 85% RMMP1, 10% heat inactivated horse serum, 5 fetal bovine serum. Half of the cells were treated with nerve growth factor (50 ng/ml, NGF) and were supplemented with NGF every 3-4 days for 14 days. […] The neurite outgrowth reached greater than 400 μm in length, approximately 15-20 times the cell body, following the contour of the matrices in a three dimensional network.

[4] = Testing of peptides for macroscopic membrane formation (phase-contrast microscope, Congo Red staining); format: physicochemical
From the text: The effect of length and sequence on membrane formation was examined using several peptides (Table 1 and Example 3). […] Very long peptides, e.g., of about 200 amino acids, may encounter problems due to insolubility and intramolecular interactions which destabilize membrane formation. […] The optimal lengths for membrane formation will probably vary with the amino acid composition.
The EAK12 and EAK16 tested for membrane formation were acetylated and aminylated at both N- and C-terminal ends. […] The peptides were initially dissolved in water (5 mg/ml) or in 23% acetonitrile (10 mg/ml). A volume of 5-10 microliters of the dissolved peptides were applied to the DMEM medium, PBS or water. The formation of the membrane was first observed under a phase-contrast microscope and then, by the naked eye after staining with Congo Red.

PC12NGF = assay: Cell attachment to biopolymer sheets, normal or Ca++ and Mg++ free medium (Table 6); format: cell-based, rat; parameters: key: ++++: strong attachment; +++: moderate attachment; ++: weak attachment; +/−: little or no attachment
Experimental: as §1

PC12 = assay: as above; format: cell-based, rat; parameters: key: ++++: strong attachment; +++: moderate attachment; ++: weak attachment; +/−: little or no attachment
Experimental: as §1

[5] = NGF-treated PC12 cells, 14 days

For `N[C@H](C(=O)O)c1cc(=O)[nH]o1` [ibotenic acid, reference compound], the “gliosis / gliotic scarring after brain injection” value [1] was “robust gliotic scarring around the injection site”.

With H-AAAADADARARADAD-OH [RAD16] the “stability of membranes in water or PBS” value [2] was “stable in water or PBS for at least a week”, the cell attachment (3T3) was “++++” and the “neurite outgrowth on biopolymers” value [3] was “occurs on RAD16-based biopolymers”. The cell attachment (3T3 fibroblast cells; 3T3, 30 min, medium with serum, no cyclohexamide) was “++++”, the cell attachment (3T3 fibroblast cells; 3T3, 30 min, serum-free medium, + cyclohexamide) was “++++” and the cell attachment (3T3 fibroblast cells; 3T3, 60 min, medium with serum, no cyclohexamide) was “++++”. For the same compound, the cell attachment (3T3 fibroblast cells; 3T3, 60 min, serum-free medium, + cyclohexamide) was “++++”, the cell attachment (3T3 fibroblast cells; 3T3, 8 hrs, medium with serum, no cyclohexamide) was “++++” and the cell attachment (3T3 fibroblast cells; 3T3, 8 hrs, serum-free medium, + cyclohexamide) was “++”. For the same compound, the “neurite outgrowth of NGF-treated PC12 cells, in words” value (PC12 cells; NGF-treated PC12 cells on membranes) was “robust neurite processes; also recorded: Robust neurite outgrowth”, the neurite outgrowth length (PC12 cells; [5]) was “greater than 400 μm” and the “neurite outgrowth length relative to the cell body” value (PC12 cells; [5]) was 15-20 times the cell body. The “Neurite outgrowth, untreated, 14 days” value (PC12 cells; PC12 cells without NGF, 14 days) was “− (no neurite outgrowth)”, the “Neurite outgrowth, NGF treated, 14 days” value (PC12 cells; PC12 cells, NGF 50 ng/ml, 14 days) was “++++” and the “formation of macroscopic membranes” value ([4]; identical conditions, in words) was “found to form macroscopic membranes”. For the same compound, the “membranous structure in Water” value ([4]; water) was “−”, the cell attachment (PC12NGF; 30 min, Ca^++ & Mg^++ free, EDTA serum-free + Cyclohex) was “++++” and the cell attachment (PC12NGF; 30 min, Normal Ca^++ & Mg^++ serum-free + Cyclohex) was “++++”. The cell attachment (PC12NGF; 60 min, Ca^++ & Mg^++ free, EDTA serum-free + Cyclohex) was “++++”, the cell attachment (PC12NGF; 60 min, Normal Ca^++ & Mg^++ serum-free + Cyclohex) was “++++” and the cell attachment (PC12; PC12, 30 min, Ca^++ & Mg^++ free, EDTA serum-free + Cyclohex) was “++++”. For the same compound, the cell attachment (PC12; PC12, 30 min, Normal Ca^++ & Mg^++ serum-free + Cyclohex) was “++++”, the cell attachment (PC12; PC12, 60 min, Ca^++ & Mg^++ free, EDTA serum-free + Cyclohex) was “++++” and the cell attachment (PC12; PC12, 60 min, Normal Ca^++ & Mg^++ serum-free + Cyclohex) was “++++”.
